Measured values: article PMC3047706 (Chemmedchem, 2010)
Counter-ions that a name gives are not always drawn.

The compounds below were run against T1, T. cruzi TryR (Trypanosoma cruzi, UniProt P28593) (assay: DTNB-coupled TryR assay, global fit of mode of inhibition). Settings: not given.
Type: biochemical

T1 sequence (P28593 whole entry): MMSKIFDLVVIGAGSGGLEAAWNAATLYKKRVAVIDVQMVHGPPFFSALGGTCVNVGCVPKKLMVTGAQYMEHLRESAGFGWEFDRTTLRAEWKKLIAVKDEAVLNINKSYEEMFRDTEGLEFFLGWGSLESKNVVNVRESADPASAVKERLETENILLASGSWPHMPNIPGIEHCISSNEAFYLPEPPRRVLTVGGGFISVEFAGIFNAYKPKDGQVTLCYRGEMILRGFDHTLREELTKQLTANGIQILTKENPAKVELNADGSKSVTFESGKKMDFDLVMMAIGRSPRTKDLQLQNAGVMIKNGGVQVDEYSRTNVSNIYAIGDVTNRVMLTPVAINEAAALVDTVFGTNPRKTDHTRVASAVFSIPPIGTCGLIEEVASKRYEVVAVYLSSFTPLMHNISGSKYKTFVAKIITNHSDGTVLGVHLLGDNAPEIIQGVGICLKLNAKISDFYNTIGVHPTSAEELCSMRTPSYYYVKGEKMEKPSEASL

Row | SMILES | Ki
1 | CC(C)CCN[C@@H]1C[C@@H](c2ccc(Cl)c(Cl)c2)c2ccccc21 (relative stereo) [8ii, Trans-[3-(3,4-dichlorophenyl)indan-1-yl]-(3-methylbutyl)amine hydrochloride] | 3.5 ± 0.4 µM

What follows are compounds tested against T1, T. cruzi TryR (assay: DTNB-coupled TryR microplate assay, […] nm). Settings: not given.
Type: biochemical

Row | SMILES | IC50
2 | CN(C)c1ccc(CN[C@@H]2C[C@@H](c3ccc(Cl)c(Cl)c3)c3ccccc32)cc1 (relative stereo) [8xii, Trans-[3-(3,4-dichlorophenyl)indan-1-yl]-(4-dimethylaminobenzyl)amine] | 7.38 ± 1.21 µM
3 | Clc1ccc([C@@H]2C[C@@H](N3CCOCC3)c3ccccc32)cc1Cl (relative stereo) [8vi, Trans-4-[3-(3,4-dichlorophenyl)indan-1-yl]morpholine] | 173 ± 56 µM
4 | COc1ccc2c(c1)[C@H](NCCC(C)C)C[C@H]2c1ccc(Cl)cc1 (relative stereo) [8xviii, Trans-[3-(4-chlorophenyl)-6-methoxyindan-1-yl]-(3-methylbutyl)amine] | 15.8 ± 1.6 µM
5 | COc1ccc(CN[C@@H]2C[C@@H](c3ccc(Cl)c(Cl)c3)c3ccccc32)cc1 (relative stereo) [8xi, Trans-[3-(3,4-dichlorophenyl)indan-1-yl]-(4-methoxybenzyl)amine] | 4.14 ± 0.41 µM
6 | COc1ccc2c(c1)[C@@H](NCc1ccccc1)C[C@@H]2c1ccc(Cl)c(Cl)c1 (relative stereo) [8xxi, Trans-benzyl-[3-(3,4-dichlorophenyl)-6-methoxyindan-1-yl]amine] | 3.07 ± 0.45 µM
7 | Cc1ccc(CN[C@@H]2C[C@@H](c3ccc(Cl)c(Cl)c3)c3ccccc32)cc1 (relative stereo) [8x, Trans-[3-(3,4-dichlorophenyl)indan-1-yl]-(4-methylbenzyl)amine] | 13 ± 1.6 µM
8 | COc1ccc2c(c1)[C@H](NCCC(C)C)C[C@H]2c1ccc(Br)c(Br)c1 (relative stereo) [8xvii, Trans-[3-(3,4-dibromophenyl)-6-methoxyindan-1-yl]-(3-methylbutyl)amine] | 3.15 ± 0.23 µM
9 | COc1cccc(C2CC(NCCC(C)C)c3cc(OC)ccc32)c1 (centres unmarked) [8xx] | 125 ± 17 µM
10 | Clc1ccc(C2CC(NCc3ccccc3)c3ccccc32)cc1Cl (centres unmarked) [8vii] | 8.04 ± 0.91 µM
11 | COc1ccc2c(c1)[C@H](NCCC(C)C)C[C@H]2c1ccc(Cl)c(Cl)c1 (relative stereo) [8xvi, Trans-[3-(3,4-dichlorophenyl)-6-methoxyindan-1-yl]-(3-methylbutyl)amine] | 2.23 ± 0.66 µM
12 | CC(=O)N[C@@H]1C[C@@H](c2ccc(Cl)c(Cl)c2)c2ccccc21 (relative stereo) [8xiv, Trans-N-[3-(3,4-dichlorophenyl)indan-1-yl]acetamide] | > 200 µM
13 | Cc1ccc(S(=O)(=O)N[C@@H]2C[C@@H](c3ccc(Cl)c(Cl)c3)c3ccccc32)cc1 (relative stereo) [8xv, Trans-N-[3-(3,4-dichlorophenyl)indan-1-yl]-4-methylbenzenesulfonamide] | > 200 µM
14 | Clc1ccc(CN[C@@H]2C[C@@H](c3ccc(Cl)c(Cl)c3)c3ccccc32)cc1Cl (relative stereo) [8ix, Trans-[3-(3,4-dichlorophenyl)indan-1-yl]-(3,4-dichlorobenzyl)amine] | 45.9 ± 4.2 µM
15 | CC(C)CCN[C@@H]1C[C@@H](c2ccc(Cl)c(Cl)c2)c2ccccc21 (relative stereo) [8ii, Trans-[3-(3,4-dichlorophenyl)indan-1-yl]-(3-methylbutyl)amine hydrochloride] | 4.05 ± 0.39 µM
16 | COc1ccc2c(c1)[C@H](NCCC(C)C)C[C@H]2c1ccc(C)cc1 (relative stereo) [8xix, Trans-[3-(4-methylphenyl)-6-methoxyindan-1-yl]-(3-methylbutyl)amine] | 32.9 ± 4.3 µM

Each compound was assayed against T2, human GR (Homo sapiens, UniProt P00390) (assay: DTNB-coupled GR microplate assay, single concentration in duplicate). Settings: read-out: % inhibition at 25 μM.
T2 sequence (P00390 44-522): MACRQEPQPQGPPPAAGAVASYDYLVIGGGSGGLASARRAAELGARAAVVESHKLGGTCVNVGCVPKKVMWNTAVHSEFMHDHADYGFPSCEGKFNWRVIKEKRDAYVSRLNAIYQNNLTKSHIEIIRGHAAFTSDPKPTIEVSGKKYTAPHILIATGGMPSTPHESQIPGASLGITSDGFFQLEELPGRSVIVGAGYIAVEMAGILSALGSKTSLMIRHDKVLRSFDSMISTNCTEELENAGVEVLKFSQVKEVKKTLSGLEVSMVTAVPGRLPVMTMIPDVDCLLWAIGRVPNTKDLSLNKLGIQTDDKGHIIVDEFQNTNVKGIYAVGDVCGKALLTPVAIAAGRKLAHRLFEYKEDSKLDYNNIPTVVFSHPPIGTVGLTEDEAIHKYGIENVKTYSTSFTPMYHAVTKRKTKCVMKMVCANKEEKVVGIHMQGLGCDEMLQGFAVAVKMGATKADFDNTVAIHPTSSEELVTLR
Type: biochemical

Row | SMILES | inhibition at 25 µM
17 | CN[C@@H]1C[C@@H](c2ccc(Cl)c(Cl)c2)c2ccccc21 [compound 3, indatraline] | < 12%
